According to US20230103631A1, “PEPTIDES AS SELECTIVE GIP RECEPTOR AGONISTS” (Sanofi, priority 2020, published 2023):
*1 amine or outer side, *2 acyl side, *3 side chain or, on linkers, in order; H or OH if unused. Where a SMILES comes first, the peptide text is derived from it. Where no end group is shown, it is not given here. Side-chain parts run from the residue outwards. [ ]: non-standard residue; d: D form. The star is where a group is joined. C18 diacid = O=C(O)CCCCCCCCCCCCCCCCC(=O)*; γGlu = O=C(O)[C@H](CCC(=O)[*:2])N[*:1]; NMeY = CN[C@@H](Cc1ccc(O)cc1)C(=O)O; AEEA = NCCOCCOCC(=O)O; Aib = CC(C)(N)C(=O)O; Sar = CNCC(=O)O

T1: human GIP receptor (human, UniProt P48546 22-466)
T1 sequence (looked up): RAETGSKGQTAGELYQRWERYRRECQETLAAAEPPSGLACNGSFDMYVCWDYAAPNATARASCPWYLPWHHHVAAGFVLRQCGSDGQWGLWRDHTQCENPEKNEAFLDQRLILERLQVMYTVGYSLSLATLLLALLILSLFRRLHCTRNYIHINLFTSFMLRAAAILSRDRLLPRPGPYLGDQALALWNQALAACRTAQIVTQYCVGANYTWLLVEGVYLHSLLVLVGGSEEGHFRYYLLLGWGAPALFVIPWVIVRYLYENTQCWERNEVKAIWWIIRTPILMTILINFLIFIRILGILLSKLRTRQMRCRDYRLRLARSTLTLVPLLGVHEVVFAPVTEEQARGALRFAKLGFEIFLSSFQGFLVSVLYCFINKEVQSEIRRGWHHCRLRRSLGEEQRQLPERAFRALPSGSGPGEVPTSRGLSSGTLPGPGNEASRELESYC

B1: SEQ ID NO: 17 (peptide)
peptide: Y[Aib]EGTFISDLSI[Aib]K([Sar-Sar-Sar-γGlu-C18 diacid])DRIHQEEFIEWLLAQGPSSGAPPPS-NH2
modifications: N-terminus assumed
SMILES: CC[C@H](C)[C@H](NC(=O)[C@H](Cc1ccccc1)NC(=O)[C@H](CCC(=O)O)NC(=O)[C@H](CCC(=O)O)NC(=O)[C@H](CCC(N)=O)NC(=O)[C@H](Cc1c[nH]cn1)NC(=O)[C@@H](NC(=O)[C@H](CCCNC(=N)N)NC(=O)[C@H](CC(=O)O)NC(=O)[C@H](CCCCNC(=O)CN(C)C(=O)CN(C)C(=O)CN(C)C(=O)CC[C@H](NC(=O)CCCCCCCCCCCCCCCCC(=O)O)C(=O)O)NC(=O)C(C)(C)NC(=O)[C@@H](NC(=O)[C@H](CO)NC(=O)[C@H](CC(C)C)NC(=O)[C@H](CC(=O)O)NC(=O)[C@H](CO)NC(=O)[C@@H](NC(=O)[C@H](Cc1ccccc1)NC(=O)[C@@H](NC(=O)CNC(=O)[C@H](CCC(=O)O)NC(=O)C(C)(C)NC(=O)[C@@H](N)Cc1ccc(O)cc1)[C@@H](C)O)[C@@H](C)CC)[C@@H](C)CC)[C@@H](C)CC)C(=O)N[C@@H](CCC(=O)O)C(=O)N[C@@H](Cc1c[nH]c2ccccc12)C(=O)N[C@@H](CC(C)C)C(=O)N[C@@H](CC(C)C)C(=O)N[C@@H](C)C(=O)N[C@@H](CCC(N)=O)C(=O)NCC(=O)N1CCC[C@H]1C(=O)N[C@@H](CO)C(=O)N[C@@H](CO)C(=O)NCC(=O)N[C@@H](C)C(=O)N1CCC[C@H]1C(=O)N1CCC[C@H]1C(=O)N1CCC[C@H]1C(=O)N[C@@H](CO)C(N)=O

Key:
physchem = format: physicochemical; conditions: for Soluble amount: 24 h, pH 7.4; for solubility at 24 h: pH 7.4, Soluble amount
Description: Prior to the solubility measurement of a peptide batch, its purity was determined through UHPLC/MS. […] Therefore, solutions from solid samples were prepared in a buffer system with a concentration of 10 mg/ml compound based on the previously determined % purity: Solubility buffer system A) 100 mM phosphate buffer pH 7.4 […] Solubility buffer system C) 100 mM phosphate buffer pH 7.4, 2.7 mg/ml m-cresol UHPLC-UV was performed after 1 h of gentle agitation and storage at 5° C. over night (24 h) from the supernatant, which was obtained after 15 min of centrifugation at 2500 RCF (relative centrifugal acceleration). […] The different UV extinction coefficients of sample and reference peptide were calculated based on the different amino acid sequences and considered in the concentration calculation. The analytical method used was Analytical UHPLC Method A. Peptide samples were prepared in solubility buffer system A or C and solubility was assessed as described in Methods.

[1] = molecular target: human GLP-1 receptor (hGLP-1R) (Homo sapiens, UniProt P43220); assay: cAMP HTRF assay, HEK-293 cell line over-expressing human GLP-1 receptor; format: cell-based; conditions: HEK-293, cAMP, 0% HSA
human GLP-1 receptor (hGLP-1R), sequence (P43220 24-463): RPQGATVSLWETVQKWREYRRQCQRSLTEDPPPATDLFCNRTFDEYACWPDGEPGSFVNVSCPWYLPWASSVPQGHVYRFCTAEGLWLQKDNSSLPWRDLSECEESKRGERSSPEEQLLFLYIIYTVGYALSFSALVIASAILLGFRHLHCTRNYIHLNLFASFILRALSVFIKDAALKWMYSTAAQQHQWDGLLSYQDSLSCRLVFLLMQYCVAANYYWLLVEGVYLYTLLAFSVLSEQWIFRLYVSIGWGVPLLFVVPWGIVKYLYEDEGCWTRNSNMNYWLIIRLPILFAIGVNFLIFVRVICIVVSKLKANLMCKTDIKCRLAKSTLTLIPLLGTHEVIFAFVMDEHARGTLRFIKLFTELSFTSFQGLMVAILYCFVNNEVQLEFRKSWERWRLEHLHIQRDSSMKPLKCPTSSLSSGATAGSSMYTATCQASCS
Description: Each vial contained 1.8 ml cells. The vials were slowly frozen to −80° C. in isopropanol, and then transferred in liquid nitrogen for storage.
Prior to their use, frozen cells were thawed quickly at 37° C. and washed (5 min at 900 rpm) with 20 ml cell buffer (1× HBSS; 20 mM HEPES, plus 0.1% HSA if indicated in Example conditions).
For measurement of cAMP generation, 5 μl cells (final 5000 cells/well) and 5 μl of test compound were added to a 384-well plate, followed by incubation for 30 min at room temperature.
The cAMP generated was determined using a kit from Cisbio Corp. based on HTRF (Homogenous Time Resolved Fluorescence). The cAMP assay was performed according to manufacturer's instructions (Cisbio).

human GIP receptor = molecular target: T1, human GIP receptor; assay: cell-based or functional assay
human GLP-1 receptor = human GLP-1 receptor (human, UniProt P43220 24-463); assay: cell-based or functional assay

Molecule | Soluble amount (physchem) [mg/mL] | solubility at 24 h (physchem) [mg/mL] | EC50 [1] [nM] | EC50 hGIPR 0% HSA, cAMP in HEK-293 cells (human GIP receptor) [nM] | EC50 hGIPR 0.1% HSA, cAMP in HEK-293 cells (human GIP receptor) [nM] | EC50 hGLP-1R 0% HSA, cAMP in HEK-293 cells (human GLP-1 receptor) [nM]
CC[C@H](C)[C@H](NC(=O)[C@H](Cc1ccccc1)NC(=O)[C@H](CCC(=O)O)NC(=O)[C@H](CCC(=O)O)NC(=O)[C@H](CCC(N)=O)NC(=O)[C@H](Cc1c[nH]cn1)NC(=O)[C@@H](NC(=O)[C@H](CCCNC(=N)N)NC(=O)[C@H](CC(=O)O)NC(=O)[C@H](CCCCNC(=O)COCCOCCNC(=O)COCCOCCNC(=O)CC[C@H](NC(=O)CCCCCCCCCCCCCCCCC(=O)O)C(=O)O)NC(=O)C(C)(C)NC(=O)[C@@H](NC(=O)[C@H](CO)NC(=O)[C@H](CC(C)C)NC(=O)[C@H](CC(=O)O)NC(=O)[C@H](CO)NC(=O)[C@@H](NC(=O)[C@H](Cc1ccccc1)NC(=O)[C@@H](NC(=O)CNC(=O)[C@H](CCC(=O)O)NC(=O)C(C)(C)NC(=O)[C@H](Cc1ccc(O)cc1)NC)[C@@H](C)O)[C@@H](C)CC)[C@@H](C)CC)[C@@H](C)CC)C(=O)N[C@@H](CCC(=O)O)C(=O)N[C@@H](Cc1c[nH]c2ccccc12)C(=O)N[C@@H](CC(C)C)C(=O)N[C@@H](CC(C)C)C(=O)N[C@@H](C)C(=O)N[C@@H](CCC(N)=O)C(=O)NCC(=O)N1CCC[C@H]1C(=O)N[C@@H](CO)C(=O)N[C@@H](CO)C(=O)NCC(=O)N[C@@H](C)C(=O)N1CCC[C@H]1C(=O)N1CCC[C@H]1C(=O)N1CCC[C@H]1C(=O)N[C@@H](CO)C(N)=O [SEQ ID NO: 13, MeHN-Y-Aib-E-G-T-F-I-S-D-I-S-I-Aib-K[{AEEA}2-gGlu-C18OH]-DRIHQEEFIEWILAQGPSSGAPPPS-NH2] (H-[NMeY][Aib]EGTFISDLSI[Aib]K([AEEA-AEEA-γGlu-C18 diacid])DRIHQEEFIEWLLAQGPSSGAPPPS-NH2) | >11.0 | > 10.2 | > 10 |  |  | 
CC[C@H](C)[C@H](NC(=O)[C@H](Cc1ccccc1)NC(=O)[C@H](CCC(=O)O)NC(=O)[C@H](CCC(=O)O)NC(=O)[C@H](CCC(N)=O)NC(=O)[C@H](Cc1c[nH]cn1)NC(=O)[C@@H](NC(=O)[C@H](CCCNC(=N)N)NC(=O)[C@H](CC(=O)O)NC(=O)[C@H](CCCCNC(=O)CNC(=O)CNC(=O)CNC(=O)CC[C@H](NC(=O)CCCCCCCCCCCCCCCCC(=O)O)C(=O)O)NC(=O)C(C)(C)NC(=O)[C@@H](NC(=O)[C@H](CO)NC(=O)[C@H](CC(C)C)NC(=O)[C@H](CC(=O)O)NC(=O)[C@H](CO)NC(=O)[C@@H](NC(=O)[C@H](Cc1ccccc1)NC(=O)[C@@H](NC(=O)CNC(=O)[C@H](CCC(=O)O)NC(=O)C(C)(C)NC(=O)[C@@H](N)Cc1ccc(O)cc1)[C@@H](C)O)[C@@H](C)CC)[C@@H](C)CC)[C@@H](C)CC)C(=O)N[C@@H](CCC(=O)O)C(=O)N[C@@H](Cc1c[nH]c2ccccc12)C(=O)N[C@@H](CC(C)C)C(=O)N[C@@H](CC(C)C)C(=O)N[C@@H](C)C(=O)N[C@@H](CCC(N)=O)C(=O)NCC(=O)N1CCC[C@H]1C(=O)N[C@@H](CO)C(=O)N[C@@H](CO)C(=O)NCC(=O)N[C@@H](C)C(=O)N1CCC[C@H]1C(=O)N1CCC[C@H]1C(=O)N1CCC[C@H]1C(=O)N[C@@H](CO)C(N)=O [SEQ ID NO: 16, H2N-Y-Aib-E-G-T-F-I-S-D-I-S-I-Aib-K[{Gly}3-gGlu-C18OH]-DRIHQEEFIEWILAQGPSSGAPPPS-NH2] (H-Y[Aib]EGTFISDLSI[Aib]K([Gly-Gly-Gly-γGlu-C18 diacid])DRIHQEEFIEWLLAQGPSSGAPPPS-NH2) | >9.9 | > 10 | > 10 |  |  | 
CC[C@H](C)[C@H](NC(=O)[C@H](Cc1ccccc1)NC(=O)[C@H](CCC(=O)O)NC(=O)[C@H](CCC(=O)O)NC(=O)[C@H](CCC(N)=O)NC(=O)[C@H](Cc1c[nH]cn1)NC(=O)[C@@H](NC(=O)[C@H](CCCNC(=N)N)NC(=O)[C@H](CC(=O)O)NC(=O)[C@H](CCCCNC(=O)CN(C)C(=O)CN(C)C(=O)CN(C)C(=O)CC[C@H](NC(=O)CCCCCCCCCCCCCCCCC(=O)O)C(=O)O)NC(=O)C(C)(C)NC(=O)[C@@H](NC(=O)[C@H](CO)NC(=O)[C@H](CC(C)C)NC(=O)[C@H](CC(=O)O)NC(=O)[C@H](CO)NC(=O)[C@@H](NC(=O)[C@H](Cc1ccccc1)NC(=O)[C@@H](NC(=O)CNC(=O)[C@H](CCC(=O)O)NC(=O)C(C)(C)NC(=O)[C@@H](N)Cc1ccc(O)cc1)[C@@H](C)O)[C@@H](C)CC)[C@@H](C)CC)[C@@H](C)CC)C(=O)N[C@@H](CCC(=O)O)C(=O)N[C@@H](Cc1c[nH]c2ccccc12)C(=O)N[C@@H](CC(C)C)C(=O)N[C@@H](CC(C)C)C(=O)N[C@@H](C)C(=O)N[C@@H](CCC(N)=O)C(=O)NCC(=O)N1CCC[C@H]1C(=O)N[C@@H](CO)C(=O)N[C@@H](CO)C(=O)NCC(=O)N[C@@H](C)C(=O)N1CCC[C@H]1C(=O)N1CCC[C@H]1C(=O)N1CCC[C@H]1C(=O)N[C@@H](CO)C(N)=O [SEQ ID NO: 17, H2N-Y-Aib-E-G-T-F-I-S-D-I-S-I-Aib-K[{N-MeGly}3-gGlu-C18OH]-DRIHQEEFIEWILAQGPSSGAPPPS-NH2] (H-Y[Aib]EGTFISDLSI[Aib]K([Sar-Sar-Sar-γGlu-C18 diacid])DRIHQEEFIEWLLAQGPSSGAPPPS-NH2) | >11.8 | > 10.9 | > 10 |  |  | 
B1 |  |  |  | 0.00029 | 0.00339 | > 10
